Measurements reported in patent US20240358722A1, “METHODS OF ADMINISTERING FEDRATINIB” (Impact Biomedicines, Inc., priority 2021, published 2024).
Where a name gives a salt, the structure may show the parent alone.

What was measured:
STAT3/STAT5 = settings: patient-derived cell lines expressing JAK2V617F and cells engineered to express WT JAK2 or JAK2V617F; cited from earlier work
[1] = Safety and tolerability in the Phase 1 study; format: in vivo, human; settings: healthy adult subjects, fedratinib 400 mg, Parts 1 and 2
Excerpt: During the study, blood samples will be collected at prespecified times for PK. Subject safety will be monitored throughout the study. The study will be conducted in compliance with the International Council on Harmonization (ICH) of Technical Requirements for Registration of Pharmaceuticals for Human Use/Good Clinical Practice (GCP) and applicable regulatory requirements.

[2] = Phase 1 crossover relative bioavailability study, Part 2: fedratinib plasma PK; format: in vivo, human; settings: for AUC0-∞: geometric mean, one participant excluded (pAUCe >20%); for AUC0-t / Cmax: n = 30, geometric mean, plasma
Method: (§1) An open-label, single-site, 2-part crossover study will be conducted in healthy adult subjects. This study will evaluate the RBA of 400 mg fedratinib when administered orally as contents of capsules dispersed in a nutritional supplement or via NG tube or administered orally as intact capsules with a nutritional supplement as a divided dose (200 mg BID) in comparison to intact capsules with a nutritional supplement. Each study part will consist of a randomized, multiple-sequence, open-label design. The study parts can be run in any order or in parallel. Subjects may participate in 1 part only. Each study part will consist of Screening, a Treatment phase (including baseline), and a Follow-up phone call. There will be a washout period of at least 12 days between each dose of fedratinib.
(§2) Part 2 will consist of a randomized, 3-period, 6-sequence, open-label design. Subjects will be screened for eligibility. Subjects who meet all inclusion criteria and none of the exclusion criteria will return to the study center on Day-1 for protocol-specified assessments and the start of domiciling; subjects will remain domiciled at the study center throughout all study periods.
(§3) On the evening before each dosing, all subjects will begin an overnight fast of at least 10 hours prior to dosing. No food or beverages (except water and any nutritional supplement administered with IP) will be allowed for at least 4 hours after dosing. Water is allowed as desired except for 1 hour before and 1 hour after each dosing. Each dose, with the exception of Treatment 2B, will be administered orally with approximately 240 mL noncarbonated, room temperature water. Dose modifications or interruptions are not permissible in this study.
Each subject will receive the following treatments across 3 study periods: • Treatment 2A=oral administration of a single 400-mg dose of fedratinib (4×100-mg capsules) with a nutritional supplement (reference) • Treatment 2B=a single 400-mg dose of fedratinib, administered via NG tube as contents from 4×100-mg capsules dispersed into a nutritional supplement (test) • Treatment 2C=oral administration of 400-mg fedratinib with a nutritional supplement, given as a divided dose (i.e., BID [2×100-mg capsules each]) (test)
Prior to administration of Treatment 2B, a nasogastric tube will be placed and an X-ray(s) will be performed to confirm correct placement of the nasogastric tube. Following administration of Treatment 2B, the nasogastric tube will be flushed with a volume of sterile water for irrigation equal to approximately 60 mL. Lidocaine gel or a suitable therapeutic equivalent may be used to reduce participant discomfort during the nasogastric tube insertion procedure. The timing from start of the nasogastric tube placement to dosing will be up to 4 hours. Actual time of dose administration will be referred to as “0 hour.”
(§4) All planned doses will be administered with a commercially available nutritional supplement (e.g., Ensure Plus® or Boost Plus®). The chosen nutritional supplement will be used throughout the study. The volume of nutritional supplement to be administered with each dose will be (e.g., approximately 180 mL).
(§5) Blood samples (approximately 3 mL each) for the measurement of fedratinib concentrations in plasma will collected at the following time points: • Treatment 1A, 1B, 2A and 2B: pre dose (0 hour) and at 0.5, 1, 1.5, 2, 3, 4, 6, 8, 12, 24, 48, 72, 120, 168, 192, and 240 hours post dose. • Treatment 2C: pre dose (0 hour) and at 0.5, 1, 1.5, 2, 3, 4, 6, 8, 12 (pre dose of the second dose), 12.5, 13, 13.5, 14, 15, 16, 18, 24, 48, 72, 120, 168, 192, and 240 hours post dose of the first dose.
(§6) Fedratinib plasma PK concentrations will be measured using a validated liquid chromatography tandem mass spectrometry assay
Fedratinib plasma PK parameters will be calculated using noncompartmental methods. […]

[3] = Effect of meals on fedratinib pharmacokinetics; format: in vivo, human; settings: high-fat, high-calorie meal (approx. 815 calories, 52% fat) and low-fat, low-calorie meal (approx. 162 calories, 6% fat)
Method: (§7) Thus, fedratinib can be taken with or without regard to food. Moreover, the most frequently reported gastrointestinal (GI)-related treatment-emergent adverse events, such as nausea and vomiting, are less frequent in the fed state (62.5% and 16.7%,) than in the fasting state (87.5% and 66.7%) in subjects receiving a 500 mg fedratinib. Therefore, administration in the fed state, i.e., with nutritional supplement can reduce the incidence of nausea and vomiting.

JAK2V617F-driven MPNs = settings: mouse models of JAK2V617F-driven MPNs; cited from earlier work
[4] = Phase 1 crossover relative bioavailability study, Part 1: fedratinib plasma PK; format: in vivo, human; settings: for AUC0-t / Cmax: plasma
Method: as §1
as §2, with “Part 1” for “Part 2”, “randomized, 2-period, 2-sequence,” for “randomized, 3-period, 6-sequence,”, “throughout both” for “throughout all”
as §3
Each subject will receive the following treatments across 2 study periods: • Treatment 1A=oral administration of a single 400-mg dose of fedratinib (4×100-mg capsules) with a nutritional supplement (reference) • Treatment 1B=oral administration of a single 400-mg dose of fedratinib with contents of 4×100-mg capsules dispersed in a nutritional supplement (test)
as §4, §5, §6
Fedratinib plasma PK parameters will be calculated using noncompartmental methods. The following key PK parameters will be estimated as allowed by the data: • Maximum observed plasma concentration (Cmax) • Area under the plasma concentration-time curve (AUC) from time zero to the last
To estimate the RBA for Treatments 1B in comparison with Treatment 1A, an ANOVA with treatment, period, and sequence as fixed effects, and subject nested within sequence as a random effect will be performed on the natural log-transformed Cmax, AUC (0-T), and AUC (INF). The geometric means along with ratios of the geometric means (test/reference) and associated 90% confidence intervals will be presented.

[5] = tested on: patient-derived cell lines expressing JAK2V617F and cells engineered to express WT JAK2 or JAK2V617F; settings: cited from earlier work
[6] = GI-related treatment-emergent adverse events, fed vs fasting state; format: in vivo, human; settings: subjects receiving 500 mg fedratinib
Method: as §7

[7] = Population pharmacokinetics analysis of cumulative data from 452 patients; format: in vivo, human; settings: age 20 to 95 years, body weight 40 to 135 kg
[8] = Treatment 2A: fedratinib 400 mg oral capsules with nutritional supplement
[9] = Treatment 2B (via NG tube) vs Treatment 2A (capsules orally), 400 mg single dose
[10] = Treatment 2B: fedratinib 400 mg in supplement via NG tube
[11] = Treatment 2C (divided dose) vs Treatment 2A (single dose)
[12] = Treatment 2C: fedratinib 2 × 200 mg capsules, divided dose
[13] = Treatment 1A: fedratinib 400 mg oral capsules with nutritional supplement, n = 27, geometric mean
[14] = Treatment 1B (dispersed in nutritional supplement) vs Treatment 1A (intact capsules), 400 mg single dose
[15] = Treatment 1B: fedratinib 400 mg dispersed in supplement, oral, n = 27, geometric mean

Cc1cnc(Nc2ccc(OCCN3CCCC3)cc2)nc1Nc1cccc(S(=O)(=O)NC(C)(C)C)c1 [fedratinib, N-tert-butyl-3-[(5-methyl-2-{[4-(2-pyrrolidin-1-ylethoxy)phenyl]amino}pyrimidin-4-yl)amino] benzenesulfonamide dihydrochloride monohydrate]
phosphorylation of STAT3/STAT5 (STAT3/STAT5): reduced | safety signals or treatment-emergent serious adverse events [1]: No new safety signals or treatment-emergent serious adverse events were reported | differences in exposure to fedratinib compared to a single dose of 4×100 mg capsules administered orally ([2]; 400 mg, healthy adult participants, with nutritional supplement, via NG tube, or divided capsule dose): no significant differences | AUC0-∞ [2, 8]: 24963 ng·h/mL | AUC0-t [2, 8]: 22683 ng·h/mL | Cmax [2, 8]: 1388 ng/mL | ratio of geometric means between test and reference, AUC (0-T) [2, 9]: 84% | ratio of geometric means between test and reference, AUC (INF) [2, 9]: 85% | ratio of geometric means between test and reference, Cmax [2, 9]: 90% | AUC0-∞ [2, 10]: 21334 ng·h/mL | AUC0-t [2, 10]: 19111 ng·h/mL | Cmax [2, 10]: 1246 ng/mL | ratio of geometric means between test and reference, AUC (0-T) [2, 11]: 84% | ratio of geometric means between test and reference, AUC (INF) [2, 11]: 85% | ratio of geometric means between test and reference, Cmax [2, 11]: 46% | AUC0-∞ [2, 12]: 21304 ng·h/mL | AUC0-t [2, 12]: 19002 ng·h/mL | Cmax [2, 12]: 641.4 ng/mL | effect on the pharmacokinetics of fedratinib of administration with a meal [3]: No clinically meaningful effect | disease-associated symptoms, including leukopenia, anemia, splenomegaly, and fibrosis (JAK2V617F-driven MPNs): improved | phosphorylation of STAT⅗ (JAK2V617F-driven MPNs): blocked | survival (JAK2V617F-driven MPNs): increased | AUC0-∞ ([4]; Treatment 1A: fedratinib 400 mg oral capsules with nutritional supplement, geometric mean, one participant excluded (pAUCe >20%)): 22260 ng·h/mL | AUC0-t [4, 13]: 20127 ng·h/mL | Cmax [4, 13]: 1319 ng/mL | ratio of geometric means (test/reference), AUC (0-T) [4, 14]: 102% | ratio of geometric means (test/reference), AUC (INF) [4, 14]: 103% | ratio of geometric means (test/reference), Cmax [4, 14]: 108% | AUC0-∞ [4, 15]: 22838 ng·h/mL | AUC0-t [4, 15]: 20598 ng·h/mL | Cmax [4, 15]: 1425 ng/mL | apoptosis [5]: increased | cell proliferation [5]: inhibited | frequency of nausea (GI-related treatment-emergent adverse event) ([6]; fasting state): 87.5% | frequency of vomiting (GI-related treatment-emergent adverse event) ([6]; fasting state): 66.7% | frequency of nausea (GI-related treatment-emergent adverse event) ([6]; fed state): 62.5% | frequency of vomiting (GI-related treatment-emergent adverse event) ([6]; fed state): 16.7% | effect on fedratinib PK of age, race, sex, body weight, mild or moderate hepatic impairment, mild renal impairment [7]: no clinically meaningful effect
